Results as given in PubChem BioAssay AID264 (DTP/NCI, 2004).
Several values for one entry are separate records, joined by “and”; a condition that tells them apart may be missing. Identical values can stand only once. Records with an inconclusive call do not appear.

Tested on: nude mice, LX-1 lung xenograft intrarenal, tumor weight T/C
Test: NCI In Vivo Anticancer Drug Screen. Data for tumor model Human Lung LX-1 Xenograft (intrarenal inoculation) in NU/NU Swiss (nude) mice
Conditions: endpoint: mean tumor weight change, higher = larger tumour
Procedure, shortened: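 Activity was scored by measuring tumors in treated animals and in vehicle controls, then reporting the treated result as a fraction of the control result.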

[1] = dose: 150.0 mg/kg/injection, schedule: Q04DX003 (sc), vehicle: saline
[2] = dose: 300.0 mg/kg/injection, schedule: Q04DX003 (sc), vehicle: saline
[3] = dose: 300.0 mg/kg/injection, schedule: Q04DX003 (sc), vehicle: saline with Tween-80

## COC(=O)C[C@](O)(CCC(C)(C)O)C(=O)O[C@@H]1C(OC)=C[C@]23CCCN2CCc2cc4c(cc2[C@H]13)OCO4
dose: 0.63 mg/kg/injection, schedule: Q04DX003 (sc), vehicle: saline
  T/C: 115 % of control
dose: 1.25 mg/kg/injection, schedule: Q04DX003 (sc), vehicle: saline
  T/C: 110 % of control
dose: 2.5 mg/kg/injection, schedule: Q04DX003 (sc), vehicle: saline
  T/C: 95 % of control
dose: 5.0 mg/kg/injection, schedule: Q04DX003 (sc), vehicle: saline
  T/C: 102 % of control

## N=[N+]=CC(=O)OCC(N)C(=O)O (stereo not given)
dose: 12.5 mg/kg/injection, schedule: Q01DX010 (sc), vehicle: saline
  T/C: 101 % of control

## CCC1(O)CC2CN(CCc3c([nH]c4ccccc34)C(C(=O)OC)(c3cc4c(cc3OC)N(C)C3C(O)(C(=O)NCCSSCCNC(=O)C5(O)C(O)C6(CC)C=CCN7CCC8(c9cc(C%10(C(=O)OC)CC%11CN(CCc%12c%10[nH]c%10ccccc%12%10)CC(O)(CC)C%11)c(OC)cc9N(C)C58)C76)C(O)C5(CC)C=CCN6CCC43C65)C2)C1 (stereo not given)
dose: 0.75 mg/kg/injection, schedule: Q04DX003 (sc), vehicle: saline
  T/C: 46 % of control
dose: 1.5 mg/kg/injection, schedule: Q04DX003 (sc), vehicle: saline
  T/C: 23 % of control and 46 % of control
dose: 1.5 mg/kg/injection, schedule: Q04DX003 (sc), vehicle: suspension in saline
  T/C: 105 % of control
dose: 6.0 mg/kg/injection, schedule: Q04DX003 (sc), vehicle: suspension in saline
  T/C: 81 % of control
dose: 12.0 mg/kg/injection, schedule: Q04DX003 (sc), vehicle: saline
  T/C: 88 % of control
dose: 12.0 mg/kg/injection, schedule: Q04DX003 (sc), vehicle: suspension in saline
  T/C: 65 % of control

## COC1/C=C\C=C(/C)C(=O)NC2=CC(=O)C=C(C2=O)C(OC)C(C)CC(OC)C(OC)C(C)/C=C(/C)C1OC(N)=O (stereo not given)
dose: 4.5 mg/kg/injection, schedule: Q04DX003 (sc), vehicle: Klucel (hydroxypropylcellulose) (HPC)
  T/C: 82 % of control

## CC1=NN(c2cccc(S(=O)(=O)O)c2)C(=O)C1N=Nc1cc(Cl)cc(S(=O)(=O)O)c1O.CC1=NN(c2cccc(S(=O)(=O)O)c2)C(=O)C1N=Nc1cc(Cl)cc(S(=O)(=O)O)c1O.[Cr] (stereo not given)
[1]
  T/C: 171 % of control
[2]
  T/C: 152 % of control
dose: 600.0 mg/kg/injection, schedule: Q04DX003 (sc), vehicle: saline
  T/C: 110 % of control

## COc1cc(Cc2nccc3cc(OC)c(OC)cc23)c(C(C)=O)c(OC)c1
dose: 40.0 mg/kg/injection, schedule: Q01DX010 (sc), vehicle: saline
  T/C: 78 % of control
dose: 80.0 mg/kg/injection, schedule: Q01DX010 (sc), vehicle: saline
  T/C: 57 % of control
dose: 160.0 mg/kg/injection, schedule: Q01DX010 (sc), vehicle: saline
  T/C: 67 % of control

## CC(=O)c1c(O)c(C)c(O)c2c1OC1=CC(=O)C(C(C)=O)C(=O)C12C (stereo not given)
dose: 25.0 mg/kg/injection, schedule: Q01DX010 (sc), vehicle: sodium bicarbonate
  T/C: 207 % of control
dose: 50.0 mg/kg/injection, schedule: Q01DX010 (sc), vehicle: sodium bicarbonate
  T/C: 102 % of control
dose: 200.0 mg/kg/injection, schedule: Q01DX010 (sc), vehicle: sodium bicarbonate
  T/C: 82 % of control and 104 % of control

## N=c1ccn2c(n1)OC1C(O)C(CO)OC12 (stereo not given)
dose: 37.5 mg/kg/injection, schedule: Q04DX003 (sc), vehicle: saline
  T/C: 91 % of control
dose: 75.0 mg/kg/injection, schedule: Q04DX003 (sc), vehicle: saline
  T/C: 95 % of control
[1]
  T/C: 121 % of control
[2]
  T/C: 77 % of control
dose: 300.0 mg/kg/injection, schedule: Q04DX003 (sc), vehicle: suspension in saline
  T/C: 176 % of control
dose: 600.0 mg/kg/injection, schedule: Q04DX003 (sc), vehicle: suspension in saline
  T/C: 231 % of control
dose: 800.0 mg/kg/injection, schedule: Q04DX003 (sc), vehicle: saline
  T/C: 24 % of control and 48 % of control
dose: 1200.0 mg/kg/injection, schedule: Q04DX003 (sc), vehicle: suspension in saline
  T/C: 41 % of control
dose: 1600.0 mg/kg/injection, schedule: Q04DX003 (sc), vehicle: saline
  T/C: 18 % of control and 31 % of control
dose: 2400.0 mg/kg/injection, schedule: Q04DX003 (sc), vehicle: suspension in saline
  T/C: 36 % of control
dose: 3200.0 mg/kg/injection, schedule: Q04DX003 (sc), vehicle: saline
  T/C: 6 % of control and 18 % of control

## COc1cccc(C2NC(=O)c3c(n[nH]c3N)S2)c1O (stereo not given)
[3]
  T/C: 171 % of control
dose: 600.0 mg/kg/injection, schedule: Q04DX003 (sc), vehicle: saline with Tween-80
  T/C: 77 % of control
dose: 1200.0 mg/kg/injection, schedule: Q04DX003 (sc), vehicle: saline with Tween-80
  T/C: 95 % of control
dose: 2400.0 mg/kg/injection, schedule: Q04DX003 (sc), vehicle: saline with Tween-80
  T/C: 162 % of control

## COC1=CC(=O)C(OC)=C(OC)C1=O
dose: 38.0 mg/kg/injection, schedule: Q04DX003 (sc), vehicle: saline with Tween-80
  T/C: 122 % of control
dose: 75.0 mg/kg/injection, schedule: Q04DX003 (sc), vehicle: saline with Tween-80
  T/C: 72 % of control
dose: 150.0 mg/kg/injection, schedule: Q04DX003 (sc), vehicle: saline with Tween-80
  T/C: 104 % of control
[3]
  T/C: 122 % of control
